{
  "source": "patent US20100178652A1",
  "about": "“Materials and Methods for the Detection, Prevention and Treatment of Autoimmune Disease” (priority 2007, published 2010)",
  "key": {"STAT5 phosphorylation [1]": {"tested_on": "STAT5 phosphorylation", "settings": "mature monocytes and macrophages; blocking GM-CSF signaling; ref [20]; cited from earlier work"}, "STAT5 phosphorylation [2]": {"tested_on": "STAT5 phosphorylation", "experiment": "Persistence of STAT5 phosphorylation in mature myeloid cells when GM-CSF signaling is blocked", "format": "cell-based, NOD mouse", "settings": "NOD mature myeloid cells, once activated; inhibition of GM-CSF signaling", "text": "Flow cytometric analysis of fluorescently-conjugated antibody surface and intracellular binding will be used to phenotypically identify myeloid cells and quantify the level of STAT5 tyrosine phosphorylation in cells ex vivo and after in vitro stimulation. Cells will be first labeled with anti-CD11b and anti-IgM antibody conjugates to identify monocytes and macrophages (CD11b+/IgM−) in the sample, then fixed with 2% (v/v Cf) formaldehyde and permeabilized using 0.5% saponin in a high protein, isotonic buffer. Intracellular staining of STAT5Ptyr will be done using APC-conjugated anti-STAT5Ptyr specific monoclonal antibodies (Upstate Biotech, conjugated using Prozyme APC-labeling kit). This method is well developed in our laboratory and has shown good consistency in current studies. We will analyze the percentage of positive myeloid cells (% STATPtyr+/CD11b+) as well as mean fluorescence (MF) to assess both the number of cells in the myeloid population with activated STAT5 and the relative amount of phosphorylated STAT5 per cells after treatment. After flow analysis, the labeled cells are centrifuged onto slides and stain them for chromatin (DAPI, Molecular Probes). These cells were used for imaging by deconvolution microscopy as previously described and then used 3 dimensional projection rotational analysis to identify subcellular location of activated STAT5."}},
  "data": [
    {"smiles": "N#C/C(=C/c1ccc(O)c(O)c1)C(=O)NCc1ccccc1", "note": "[AG490]", "values": [
      {"measurement": "persistence of phosphorylated STAT5", "setting": "STAT5 phosphorylation [1]", "value": "does not affect"},
      {"measurement": "persistence of STAT5 phosphorylation", "setting": "STAT5 phosphorylation [2]", "value": "not affected"}
    ]}
  ]
}
